This passage reports IC50 and Activity results from ChEMBL document CHEMBL1157160, “Antioxidant and cytotoxic activities of canadine: biological effects and structural aspects” (Bioorg Med Chem, 2008).

For data set [1], the system named is Hepatocyte. Put plainly: Cytotoxicity against Sprague-Dawley rat primary hepatocytes after 24 hrs by MTT assay. The format is cell-based.
Data set [2] relates to HepG2. Put plainly: Cytotoxicity against human HepG2 cells after 24 hrs by MTT assay. The format is functional, cell-based. A general note: Tetrazolium assays rely on reduction of a dye to a coloured formazan, in cell work by metabolically active cells.
For data set [3], the system named is HeLa. Put plainly: Cytotoxicity against human HeLa cells after 24 hrs by MTT assay. Format: functional, cell-based.
Data set [4] concerns Hepatocyte. Put plainly: Cytotoxicity against rat primary hepatocytes at 300 ug/ml after 24 hrs by MTT assay. Format: cell-based.
Data set [5] relates to HepG2. Put plainly: Cytotoxicity against human HepG2 cells at 300 ug/ml after 24 hrs by MTT assay. The format is functional, cell-based.
The subject of data set [6] is HeLa. Briefly: Cytotoxicity against human HeLa cells at 300 ug/ml after 24 hrs by MTT assay. The format is functional, cell-based.
Data set [7] deals with Hepatocyte. Put plainly: Antioxidant effect in Sprague-Dawley rat primary hepatocytes assessed as decrease in tert-butyl hydroperoxide-induced malondialdehyde accumulation administered 50 ug/ml for 7 hrs followed by combined exposure of tert-butyl hydroperoxide and drug for 12 hrs. The format is functional. Also noted: scale not given: the % may be the effect or the level left.

Data set [8] has as its system Hepatocyte. Put plainly: Antioxidant effect in Sprague-Dawley rat primary hepatocytes assessed as decrease in tert-butyl hydroperoxide-induced malondialdehyde accumulation administered 100 ug/ml for 7 hrs followed by combined exposure of tert-butyl hydroperoxide and drug for 12 hrs. More on the design: scale not given: the % may be the effect or the level left. Format: functional.

The subject of data set [9] is Hepatocyte. Briefly: Antioxidant effect in Sprague-Dawley rat primary hepatocytes assessed as prevention of tert-butyl hydroperoxide-induced reduction in glutathione content administered 50 ug/ml for 7 hrs followed by combined exposure of tert-butyl hydroperoxide and drug for 12 hrs. The format is functional. More on the design: scale not given: the % may be the effect or the level left.

For data set [10], the system named is Hepatocyte. Put plainly: Antioxidant effect in Sprague-Dawley rat primary hepatocytes assessed as prevention of tert-butyl hydroperoxide-induced reduction in glutathione content administered 100 ug/ml for 7 hrs followed by combined exposure of tert-butyl hydroperoxide and drug for 12 hrs. The format is functional. Also noted: scale not given: the % may be the effect or the level left.

[11] abbreviates: Homo sapiens, HepG2, 24 h, read-out: IC50.
The mark [12] stands for this setting: Homo sapiens, HeLa, 24 h, read-out: IC50.

Structures are written as SMILES. Values after ≈ are worked out from the molar mass of the structure shown.

For `COc1cc2c3cc1Oc1c(O)c(OC)cc4c1[C@H](Cc1ccc(OC)c(c1)-c1cc(ccc1O)C[C@H]3N(C)CC2)N(C)CC4` [ANTIOQUINE], the values for the concentration for half-maximal inhibition (IC50) in the data set on Hepatocyte [1], with HepG2 [2] (setting [11]) and in the data set on HeLa [3] (setting [12]) were 4.06 µg/mL (≈ 6.67 µM), 460 µg/mL (≈ 756 µM) and 548 µg/mL (≈ 901 µM), respectively.
For `c1ccc2c(c1)C[C@H]1NCCc3cc4c(c-2c31)OCO4` [ANONAINE], the figures for the half-inhibitory concentration (IC50) with Hepatocyte [1], in the data set on HepG2 [2] (setting [11]) and with HeLa [3] (setting [12]) were 70.3 µg/mL (≈ 265 µM), 33.5 µg/mL (≈ 126 µM) and 24.8 µg/mL (≈ 93.5 µM), respectively.
With `COc1ccc2c(c1OC)CN1CCc3cc4c(cc3[C@@H]1C2)OCO4` [CANADINE], the Activity result was “Non-toxic” with Hepatocyte [4]; “Not toxic” in the data set on HepG2 [5]; “Not toxic” in the data set with HeLa [6]; more than 80% in the data set on Hepatocyte [7]; more than 80% in the data set with Hepatocyte [8]; more than 95% in the data set on Hepatocyte [9]. Besides, the Activity in the data set with Hepatocyte [10] is listed as more than 95%.
For the compound `COc1ccc2cc3[n+](cc2c1OC)CCc1cc2c(cc1-3)OCO2.[Cl-]` [BERBERINE CHLORIDE], the half-inhibitory concentration (IC50) in the data set on Hepatocyte [1] is 26.5 µg/mL; in the data set on HepG2 [2] (hepg2) it was 146 µg/mL; in the data set on HeLa [3] (hela), 138 µg/mL.

As usually defined, the IC50 is the concentration needed to halve the response being measured.
